Reference: paper PMC10900215 (JACS Au, 2024)

Key:
[1] = system: m6A/A levels in polyadenylated RNA; assay: UPLC-MS/MS quantification of m6A/A in polyadenylated RNA in MOLM-13; assay type: cell-based, human; conditions: MOLM-13, 2 μM, 24 h
Procedure: UPLC-MS/MS was performed as previously described.[28]
Briefly, MOLM-13 cells were seeded into 6 well plates at a density of 1 × 10^6 cells/mL in 2 mL of complete RPMI medium. Cells were treated with the indicated concentrations of compounds or DMSO control (final concentration 0.5% (v/v)) for 24 h. Following the incubation, cells were collected by centrifugation and washed once with PBS, and total RNA was extracted using 0.5 mL of GENEzol reagent according to the manufacturer’s instructions. The final volume of 50 μL of total RNA eluate was subjected to two rounds of purification using 25 μL of Sera-Mag magnetic oligo(dT) particles (Cytiva) per sample. The polyadenylated RNA was eluted with nuclease-free water in a final volume of 25 μL, and its concentration was determined using NanoDrop. One hundred nanograms of mRNA were digested to nucleosides and dephosphorylated in a one-pot reaction using 0.5 μL of nucleoside digestion mix (M0649S, NEB) in 25 μL of total reaction volume for 4 h at 37 °C. The samples were used for UPLC-MS/MS analysis without further purification steps. The data were plotted by using GraphPad Prism 9.

METTL3 = molecular target: T1, METTL3 (Homo sapiens, UniProt Q86U44+Q96SW2); assay: In vitro ubiquitination assay, METTL3; assay type: biochemical; conditions: 2 μM compound, 30 °C, 2 h
T1 construct: Human full-length METTL3-METTL14 was expressed and purified as described above; Human full-length cereblon-DDB1 and 6xHis-CUL4A-6xHis-RBX1 were coexpressed; StrepII (N); GFP (N); TEV site (N); made in house; host or cells: baculovirus/Sf9 insect cells (METTL3-METTL14, cereblon-DDB1, CUL4A-RBX1)
Procedure: (§1) For the cell-free in vitro ubiquitination of METTL3-METTL14 purified E1, E2, ubiquitin, CUL4A-RBX1, Cereblon-DDB1, and METTL3-METTL14 were used. Human full-length METTL3-METTL14 was expressed and purified as described above. […] Purified recombinant human UBE1 E1 (E-305–025) was purchased from R&D Systems, UbcH5a E2 (23–029) from Merck and ubiquitin (SBB-UP0013) from South Bay Bio. For the ubiquitination reaction, components were mixed to final concentrations of 0.06 μM UBE1, 1.96 μM UbcH5a, 39 μM ubiquitin, 0.33 μM CUL4A-RBX1, 0.33 μM Cereblon-DDB1, 0.5 μM METTL3-METTL14, and different concentrations of compound 14 or me-14 (0, 2, 8, or 32 μM) in reaction buffer (50 mM Tris-HCl pH 7.6, 5 mM MgCl2, 0.2 mM CaCl2, 1 mM DTT, 100 mM NaCl, 0.01% BSA, 0.01% Triton X-100). The final reaction volume was 15 μL. After the addition of 2 mM ATP (or the equal volume of water for the control without ATP), the reaction mixture was incubated for 2 h at 30 °C. […] The signals were quantified by using the Image Studio Lite software. To determine the percentage of ubiquitinated METTL3, the fraction of unmodified METTL3 was calculated by dividing the signal of the band assigned to unmodified METTL3 by the signal of the area containing both the unmodified and (poly)ubiquitinated METTL3 and normalizing to the control without ATP. […]

METTL14 = assay: In vitro ubiquitination assay, METTL14; assay type: biochemical, human; conditions: 2, 8, 32 μM compound, 30 °C, 2 h
Procedure: as §1

T1 sequence (Q86U44 whole entry): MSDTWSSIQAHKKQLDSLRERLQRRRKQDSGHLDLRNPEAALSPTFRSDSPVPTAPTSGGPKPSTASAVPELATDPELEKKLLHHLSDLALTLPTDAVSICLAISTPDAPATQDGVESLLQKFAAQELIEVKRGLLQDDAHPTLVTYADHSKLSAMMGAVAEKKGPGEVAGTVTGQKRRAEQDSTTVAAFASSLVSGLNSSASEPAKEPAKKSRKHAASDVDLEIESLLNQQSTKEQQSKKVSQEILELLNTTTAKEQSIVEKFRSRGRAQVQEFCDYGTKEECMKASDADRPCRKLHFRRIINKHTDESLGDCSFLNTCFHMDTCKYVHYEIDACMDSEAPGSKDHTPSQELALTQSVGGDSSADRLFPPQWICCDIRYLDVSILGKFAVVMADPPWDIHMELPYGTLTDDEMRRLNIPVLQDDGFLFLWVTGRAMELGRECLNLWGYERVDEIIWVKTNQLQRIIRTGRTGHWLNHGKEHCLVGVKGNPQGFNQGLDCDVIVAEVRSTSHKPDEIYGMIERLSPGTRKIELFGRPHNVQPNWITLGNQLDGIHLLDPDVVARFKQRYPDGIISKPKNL
T1 sequence (Q9HCE5 whole entry partner): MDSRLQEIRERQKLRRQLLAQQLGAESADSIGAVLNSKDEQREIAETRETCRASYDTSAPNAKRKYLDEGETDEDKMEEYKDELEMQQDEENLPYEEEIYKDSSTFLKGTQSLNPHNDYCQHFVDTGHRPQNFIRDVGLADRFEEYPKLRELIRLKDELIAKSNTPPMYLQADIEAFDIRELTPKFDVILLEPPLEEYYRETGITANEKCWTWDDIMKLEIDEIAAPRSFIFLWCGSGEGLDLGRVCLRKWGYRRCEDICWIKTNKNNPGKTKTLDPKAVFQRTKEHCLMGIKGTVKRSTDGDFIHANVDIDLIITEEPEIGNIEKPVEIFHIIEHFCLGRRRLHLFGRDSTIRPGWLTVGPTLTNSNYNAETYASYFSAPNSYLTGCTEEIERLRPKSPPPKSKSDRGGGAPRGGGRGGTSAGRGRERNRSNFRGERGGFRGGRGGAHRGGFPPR
T1 sequence (Q96SW2 whole entry): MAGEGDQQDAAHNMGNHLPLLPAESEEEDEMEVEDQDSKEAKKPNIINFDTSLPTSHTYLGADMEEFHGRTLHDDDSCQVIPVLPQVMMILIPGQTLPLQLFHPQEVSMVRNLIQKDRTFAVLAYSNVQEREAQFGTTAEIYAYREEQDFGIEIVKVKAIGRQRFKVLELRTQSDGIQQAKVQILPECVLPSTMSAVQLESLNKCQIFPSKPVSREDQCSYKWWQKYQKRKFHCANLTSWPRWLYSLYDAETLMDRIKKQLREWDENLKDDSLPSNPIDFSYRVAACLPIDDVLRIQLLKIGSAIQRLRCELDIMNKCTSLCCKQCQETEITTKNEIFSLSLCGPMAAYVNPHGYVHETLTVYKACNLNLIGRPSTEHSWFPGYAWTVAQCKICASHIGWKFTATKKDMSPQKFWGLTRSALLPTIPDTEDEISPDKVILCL
T1 sequence (Q16531 whole entry partner): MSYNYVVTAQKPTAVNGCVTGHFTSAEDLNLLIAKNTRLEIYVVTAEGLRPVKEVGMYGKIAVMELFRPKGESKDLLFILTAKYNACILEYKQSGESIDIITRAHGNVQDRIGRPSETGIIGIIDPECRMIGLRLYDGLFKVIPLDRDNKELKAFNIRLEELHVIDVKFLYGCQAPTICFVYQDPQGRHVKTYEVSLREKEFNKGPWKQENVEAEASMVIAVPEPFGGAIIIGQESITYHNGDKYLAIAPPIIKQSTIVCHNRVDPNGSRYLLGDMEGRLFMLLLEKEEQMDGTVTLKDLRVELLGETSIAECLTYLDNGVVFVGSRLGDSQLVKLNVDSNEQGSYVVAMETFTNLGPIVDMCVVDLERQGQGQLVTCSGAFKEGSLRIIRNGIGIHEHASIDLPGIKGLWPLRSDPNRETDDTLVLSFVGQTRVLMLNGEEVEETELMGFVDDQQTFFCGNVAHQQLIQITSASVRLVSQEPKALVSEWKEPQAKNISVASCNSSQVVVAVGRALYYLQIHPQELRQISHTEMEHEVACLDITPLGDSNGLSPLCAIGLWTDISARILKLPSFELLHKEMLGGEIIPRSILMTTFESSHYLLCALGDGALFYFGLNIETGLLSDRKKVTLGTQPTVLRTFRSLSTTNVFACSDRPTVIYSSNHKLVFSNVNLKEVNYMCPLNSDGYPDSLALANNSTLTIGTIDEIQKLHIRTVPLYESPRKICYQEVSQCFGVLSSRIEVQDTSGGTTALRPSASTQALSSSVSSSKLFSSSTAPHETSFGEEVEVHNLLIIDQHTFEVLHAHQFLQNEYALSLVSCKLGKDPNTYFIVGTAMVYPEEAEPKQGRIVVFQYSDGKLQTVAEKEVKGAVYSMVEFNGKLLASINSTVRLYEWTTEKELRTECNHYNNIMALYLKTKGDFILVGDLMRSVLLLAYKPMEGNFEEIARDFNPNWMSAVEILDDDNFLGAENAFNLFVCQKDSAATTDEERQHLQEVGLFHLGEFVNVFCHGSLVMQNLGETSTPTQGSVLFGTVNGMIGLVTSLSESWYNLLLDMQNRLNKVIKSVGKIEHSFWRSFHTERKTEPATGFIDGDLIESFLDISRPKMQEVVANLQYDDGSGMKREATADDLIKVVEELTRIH
T1 sequence (Q13619 whole entry partner): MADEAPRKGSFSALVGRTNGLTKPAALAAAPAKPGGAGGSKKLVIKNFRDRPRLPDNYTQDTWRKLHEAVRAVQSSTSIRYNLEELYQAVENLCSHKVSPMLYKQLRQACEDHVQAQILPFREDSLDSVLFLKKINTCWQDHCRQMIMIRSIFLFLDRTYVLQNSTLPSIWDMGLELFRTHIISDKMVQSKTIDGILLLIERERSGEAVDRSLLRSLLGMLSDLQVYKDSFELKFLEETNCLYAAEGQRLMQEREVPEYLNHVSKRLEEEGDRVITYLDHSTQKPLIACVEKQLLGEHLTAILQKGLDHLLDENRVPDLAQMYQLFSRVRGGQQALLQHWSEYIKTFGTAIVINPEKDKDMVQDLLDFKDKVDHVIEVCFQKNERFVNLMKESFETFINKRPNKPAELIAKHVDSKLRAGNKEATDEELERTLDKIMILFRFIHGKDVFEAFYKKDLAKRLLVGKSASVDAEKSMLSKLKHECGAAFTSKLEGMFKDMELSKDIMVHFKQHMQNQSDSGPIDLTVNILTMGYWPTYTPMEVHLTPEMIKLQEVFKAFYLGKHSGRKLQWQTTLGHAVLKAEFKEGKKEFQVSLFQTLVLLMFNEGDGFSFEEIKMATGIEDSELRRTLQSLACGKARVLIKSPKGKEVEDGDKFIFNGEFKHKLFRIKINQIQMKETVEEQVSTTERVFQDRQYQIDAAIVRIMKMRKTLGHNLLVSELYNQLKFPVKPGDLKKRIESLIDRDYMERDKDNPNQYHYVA
T1 sequence (P62877 whole entry partner): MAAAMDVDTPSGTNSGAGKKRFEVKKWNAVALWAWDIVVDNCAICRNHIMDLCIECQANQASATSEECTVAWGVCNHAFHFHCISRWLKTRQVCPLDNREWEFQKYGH

SMILES	m6A/A levels [1]	ubiquitination level of METTL3 (METTL3) [%]	ubiquitination of METTL14 (METTL14)
CC1(C)CCN(Cc2cc(F)c(N3CC(=O)NC4(CCN(c5cc(NCC6CCN(C(=O)CCCNc7cccc8c7C(=O)N(C7CCC(=O)NC7=O)C8=O)CC6)ncn5)CC4)C3)cc2F)CC1 (stereo not drawn) [Compound 22]	slight reduction	–	–
CC1(C)CCN(Cc2cc(F)c(N3CC(=O)NC4(CCN(c5cc(NCc6cccc(CNC(=O)CCCNc7cccc8c7C(=O)N(C7CCC(=O)NC7=O)C8=O)c6)ncn5)CC4)C3)cc2F)CC1 (stereo not drawn) [Compound 14]	–	~40	not as pronounced
